Where two headings read alike, the source gives them in different places.
How the values were obtained:
Experiment in all cases: biochemical
Set-up in all cases: Eurofins KinaseProfiler full panel at Km ATP, residual kinase activity (%) relative to DMSO
CDK2/cyclinE(h) = CDK2/cyclinE(h) (Homo sapiens, UniProt P24941)
How it was run: (§1)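 Radiometric kinase activity assays were run with ATP at Km and compounds at 10 µM, and remaining activity (%) was reported. A separate competitive binding screen measured DNA-tagged kinase displaced from immobilized active-site ligands by qPCR, giving percent kinase still bound at 10 µM compound in DMSO.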

MEKK2(h) = target: T1, MEKK2(h) (Homo sapiens, UniProt Q9Y2U5)
T1 construct: gene MAP3K2
T1 sequence (Q9Y2U5 1-619): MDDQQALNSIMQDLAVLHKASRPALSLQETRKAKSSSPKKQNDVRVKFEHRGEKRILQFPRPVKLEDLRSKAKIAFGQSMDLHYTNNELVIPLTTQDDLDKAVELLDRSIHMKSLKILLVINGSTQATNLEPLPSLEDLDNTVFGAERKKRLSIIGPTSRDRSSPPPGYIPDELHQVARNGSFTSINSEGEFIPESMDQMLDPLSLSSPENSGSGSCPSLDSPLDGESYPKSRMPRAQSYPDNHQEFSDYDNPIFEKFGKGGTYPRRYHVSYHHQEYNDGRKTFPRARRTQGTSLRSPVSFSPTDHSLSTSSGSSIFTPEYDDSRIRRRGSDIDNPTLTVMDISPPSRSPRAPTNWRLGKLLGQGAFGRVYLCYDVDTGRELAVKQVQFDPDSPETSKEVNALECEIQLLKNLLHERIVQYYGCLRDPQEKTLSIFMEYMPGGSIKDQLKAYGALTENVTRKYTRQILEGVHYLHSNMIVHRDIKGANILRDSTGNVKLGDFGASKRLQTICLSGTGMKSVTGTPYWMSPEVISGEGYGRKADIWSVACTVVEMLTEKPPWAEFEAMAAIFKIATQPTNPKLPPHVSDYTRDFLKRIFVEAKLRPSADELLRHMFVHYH
How it was run: as §1

PKD3(h) = target: T2, PKD3(h) (Homo sapiens, UniProt O94806)
T2 construct: gene PRKD3
T2 sequence (O94806 1-890): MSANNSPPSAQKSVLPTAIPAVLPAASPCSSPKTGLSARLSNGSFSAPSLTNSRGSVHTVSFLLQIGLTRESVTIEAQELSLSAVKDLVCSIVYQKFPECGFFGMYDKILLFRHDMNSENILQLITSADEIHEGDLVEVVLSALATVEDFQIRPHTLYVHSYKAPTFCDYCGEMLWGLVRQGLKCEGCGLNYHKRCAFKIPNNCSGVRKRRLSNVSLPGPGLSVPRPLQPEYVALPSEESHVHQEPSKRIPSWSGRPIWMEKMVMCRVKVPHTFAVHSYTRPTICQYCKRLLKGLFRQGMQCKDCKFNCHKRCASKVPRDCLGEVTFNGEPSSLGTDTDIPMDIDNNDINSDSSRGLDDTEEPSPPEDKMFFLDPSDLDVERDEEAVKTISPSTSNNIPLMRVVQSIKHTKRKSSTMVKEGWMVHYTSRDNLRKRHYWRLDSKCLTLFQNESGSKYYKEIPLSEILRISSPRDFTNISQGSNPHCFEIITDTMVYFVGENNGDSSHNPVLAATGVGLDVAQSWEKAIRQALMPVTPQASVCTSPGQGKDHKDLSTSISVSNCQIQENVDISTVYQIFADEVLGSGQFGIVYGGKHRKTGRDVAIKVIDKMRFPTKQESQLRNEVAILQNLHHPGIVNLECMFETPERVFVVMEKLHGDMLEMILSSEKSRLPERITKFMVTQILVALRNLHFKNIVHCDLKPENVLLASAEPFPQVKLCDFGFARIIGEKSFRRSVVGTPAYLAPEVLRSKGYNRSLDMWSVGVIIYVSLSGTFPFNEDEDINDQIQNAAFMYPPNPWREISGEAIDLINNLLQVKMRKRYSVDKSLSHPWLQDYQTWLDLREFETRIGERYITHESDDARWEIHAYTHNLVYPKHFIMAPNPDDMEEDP
How it was run: as §1

MARK1(h) = MARK1(h) (Homo sapiens, UniProt Q9P0L2)
How it was run: as §1

ALK2(h) = target: T3, ALK2(h) (Homo sapiens, UniProt Q04771)
T3 construct: gene ACVR1
T3 sequence (Q04771 1-509): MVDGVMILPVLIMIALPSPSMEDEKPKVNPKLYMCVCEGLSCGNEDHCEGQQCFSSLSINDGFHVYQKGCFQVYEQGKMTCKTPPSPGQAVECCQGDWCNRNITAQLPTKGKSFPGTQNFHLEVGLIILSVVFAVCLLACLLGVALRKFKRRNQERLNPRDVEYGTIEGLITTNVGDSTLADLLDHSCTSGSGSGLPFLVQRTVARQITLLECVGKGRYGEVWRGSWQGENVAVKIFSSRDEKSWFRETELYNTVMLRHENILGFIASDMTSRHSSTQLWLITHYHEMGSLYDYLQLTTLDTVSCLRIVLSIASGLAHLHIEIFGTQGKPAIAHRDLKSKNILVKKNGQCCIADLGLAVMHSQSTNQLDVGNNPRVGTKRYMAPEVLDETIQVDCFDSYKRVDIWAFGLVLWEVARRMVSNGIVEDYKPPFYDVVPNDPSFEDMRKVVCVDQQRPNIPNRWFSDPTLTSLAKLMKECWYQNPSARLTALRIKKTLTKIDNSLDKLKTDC
How it was run: as §1

[1] = read-out: Residual activity (%) 5ay
[2] = read-out: Residual activity (%) Spautin-1 5aa
[3] = read-out: Residual activity (%) 5at
[4] = read-out: Residual activity (%) 5as

Sequence of MARK1(h) (Q9P0L2 whole entry): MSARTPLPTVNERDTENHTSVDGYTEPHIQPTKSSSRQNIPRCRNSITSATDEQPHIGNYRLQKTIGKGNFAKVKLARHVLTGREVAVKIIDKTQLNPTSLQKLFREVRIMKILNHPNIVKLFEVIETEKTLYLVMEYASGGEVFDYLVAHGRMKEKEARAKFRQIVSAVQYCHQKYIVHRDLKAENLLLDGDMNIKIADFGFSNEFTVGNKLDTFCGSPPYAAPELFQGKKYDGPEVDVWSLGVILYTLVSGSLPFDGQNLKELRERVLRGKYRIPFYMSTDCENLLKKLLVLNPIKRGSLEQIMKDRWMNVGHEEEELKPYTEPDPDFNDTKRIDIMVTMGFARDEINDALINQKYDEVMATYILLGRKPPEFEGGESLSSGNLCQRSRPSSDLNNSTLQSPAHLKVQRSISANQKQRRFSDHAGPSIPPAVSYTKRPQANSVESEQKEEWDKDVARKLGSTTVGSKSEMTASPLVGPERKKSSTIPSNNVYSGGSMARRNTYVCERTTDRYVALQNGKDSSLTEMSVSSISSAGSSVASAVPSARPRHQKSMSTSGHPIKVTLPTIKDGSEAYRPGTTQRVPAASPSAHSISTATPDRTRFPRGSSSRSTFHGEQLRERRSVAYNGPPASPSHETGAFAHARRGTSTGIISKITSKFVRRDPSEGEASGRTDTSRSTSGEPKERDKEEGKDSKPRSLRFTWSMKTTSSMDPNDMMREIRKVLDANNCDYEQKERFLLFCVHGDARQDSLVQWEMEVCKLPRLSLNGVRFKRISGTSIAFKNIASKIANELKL

`COc1ccc2ncnc(Nc3cccc(F)c3)c2c1` [5ay, N-(3-Fluorophenyl)-6-Methoxy-4-Quinazolinamine] showed a remaining activity at 10 µM (CDK2/cyclinE(h); [1]) of 89%, a remaining activity at 10 µM (MEKK2(h); [1]) of 108% and a remaining activity at 10 µM (PKD3(h); [1]) of 91%. For the same compound, the remaining activity at 10 µM (MARK1(h); [1]) was 89% and the remaining activity at 10 µM (ALK2(h); [1]) was 50%.
`Fc1ccc(CNc2ncnc3ccc(F)cc23)cc1` [5aa, 6-Fluoro-N-(4-fluorobenzyl)-4-Quinazolinamine] was tested, and the remaining activity at 10 µM (CDK2/cyclinE(h); [2]) was 69%, the remaining activity at 10 µM (MEKK2(h); [2]) was 113% and the remaining activity at 10 µM (PKD3(h); [2]) was 100%. For the same compound, the remaining activity at 10 µM (MARK1(h); [2]) was 89% and the remaining activity at 10 µM (ALK2(h); [2]) was 60%.
Work on `Fc1ccc2ncnc(NCCc3ccc(Cl)cc3)c2c1` [5at, N-[2-(4-Chlorophenyl)Ethyl]-6-Fluoro-4-Quinazolinamine] yielded a remaining activity at 10 µM (CDK2/cyclinE(h); [3]) of 54%, a remaining activity at 10 µM (MEKK2(h); [3]) of 102% and a remaining activity at 10 µM (PKD3(h); [3]) of 102%. For the same compound, the remaining activity at 10 µM (MARK1(h); [3]) was 82% and the remaining activity at 10 µM (ALK2(h); [3]) was 58%.
For `Fc1ccc(CCNc2ncnc3ccc(F)cc23)cc1` [5as, 6-Fluoro-N-[2-(4-Fluorophenyl)Ethyl]-4-Quinazolinamine], the remaining activity at 10 µM (CDK2/cyclinE(h); [4]) was 103%, the remaining activity at 10 µM (MEKK2(h); [4]) was 99% and the remaining activity at 10 µM (PKD3(h); [4]) was 114%. It also gave a remaining activity at 10 µM (MARK1(h); [4]) of 96% and a remaining activity at 10 µM (ALK2(h); [4]) of 45%.

Reference: publication PMC7827406, “Structure–Activity Relationship (SAR) Study of Spautin-1 to Entail the Discovery of Novel NEK4 Inhibitors” (International Journal of Molecular Sciences, 2021)
